Earlier results as cited in patent publication US11198731B2 (Exelixis, Inc., priority 2017, dated 2021).
Like-named read-outs stand apart in the source and are kept apart here.

Experiments:
[1] = system: locally advanced or metastatic UC; settings: cited from earlier work
advanced NSCLC = settings: cited from earlier work
[2] = system: advanced RCC of clear cell or non-clear cell histology; settings: cited from earlier work
cisplatin-ineligible UC = settings: cited from earlier work
[3] = system: platinum-pretreated NSCLC; settings: cited from earlier work; for OS hazard ratio: vs docetaxel
[4] = system: locally advanced or metastatic UC; settings: cited from earlier work; remark: listed apart in the source
[5] = subjects with ≥5% PD-L1 expression

## atezolizumab: humanized immunoglobulin (Ig) G1 monoclonal antibody that targets programmed death receptor 1 ligand (PD-L1)
[1]; overall population
  Duration of response (DOR): 21.7 months
  Overall ORR: 13%
[1]; overall population, vs chemotherapy
  OS hazard ratio: 0.85
[1]; [5]
  ORR: 23.0%
Advanced NSCLC; PD-L1 high group
  Median OS: 26.9 months
  Median PFS: 5.4 months
  Median duration of response: ~10 months
Advanced NSCLC; in vivo
  AE leading to discontinuation: Grade 3 or 4 pneumonitis: 1%
  AE leading to discontinuation: any grade pneumonia: 1%
  Adverse events leading to treatment discontinuation: 7%
  Treatment-related AEs of Grade 3 or 4: 9%
  Treatment-related Grade 5 event: no treatment-related Grade 5 event
Advanced NSCLC; unselected untreated NSCLC subjects
  OS: 23.5 months
[2]; clear cell RCC
  Median OS: 28.9 months
  Overall median PFS: 5.6 months
[2]; in vivo
  Grade 4 or 5 treatment-related AEs: no Grade 4 or 5 treatment-related AEs
  Treatment-related Grade 3 events: 17%
cisplatin-ineligible UC; all subjects irrespective of PD-L1 expression level
  Median OS: 15.9 months
cisplatin-ineligible UC; all subjects
  Overall ORR by IRF: 23%
cisplatin-ineligible UC; subjects with <5% PD-L1
  ORR by IRF: 21%
cisplatin-ineligible UC; [5]
  ORR by IRF: 28%
[3]; ITT population
  Median OS: 13.8 months
  ORR: 14%
  OS hazard ratio: 0.73
[3]; PD-L1 positive population (2 1% PD-L1 expression)
  Median OS: 15.7 months
[3]; PD-L1 positive population
  OS hazard ratio: 0.74
[3]; in vivo
  AE of any grade: asthenia: 8%
  AE of any grade: decreased appetite: 9%
  AE of any grade: fatigue: 14%
  AE of any grade: nausea: 9%
  Immune-related AE: colitis: two
  Immune-related AE: hepatitis: two
  Immune-related AE: pneumonitis: four
  Median DOR: 16.3 months
  Subjects who discontinued treatment due to AE: 8%
  Treatment-related Grade 3 or 4 AEs: 15%
[4]; in vivo
  Adverse events leading to treatment discontinuation: 3.2%
  Treatment-emergent anti-therapeutic antibodies detected: 41.5%
  irAE: aspartate aminotransferase (AST) increased: 2%
  irAE: pneumonitis: 2%
[4]; overall population
  Median OS: 7.9 months
  Median PFS: 2.1 months
  Overall ORR by IRF: 14.8%
[4]; subjects with <5% PD-L1 expression
  ORR by IRF: 9.5%
[4]; subjects with ? 5% PD-L1 expression
  ORR by IRF: 26.0%
[4]; [5]
  Median OS: 11.9 months
